Assay results as given in patent US4448775A, “3-Carbamoyloxymethylcephem derivatives, and antibacterial drugs containing same” (Eisai Co., Ltd., priority 1981, dated 1984).
Converted amounts (≈) assume the structure as drawn.

Legend:
[1] = Acute toxicity, LD50 (mouse, oral administration); settings: in vivo
Text: With reference to the compounds of Example Nos. 2, 3 and 4, all their acute toxicity values [LD50 (mouse, oral administration)] amount to above 4 g/kg.

Escherichia coli NIHJ = experiment: Minimal inhibitory concentration, standard agar dilution method of the Japan Society of Chemotherapy; type: cell-based
Procedure: (§1) Minimal inhibitory concentration (MIC, μg/ml) of certain compounds obtained in the above examples was determined in accordance with the standard agar dilution method of the Japan Society of Chemotherapy.

Proteus vulgaris E-18 = experiment: as above; type: cell-based; settings: E18, Proteus vulgaris E-18, lactamase-producing bacterium
Procedure: as §1

Proteus morganii EP-14 = experiment: as above; type: cell-based; settings: Morganella morganii, EP14
Procedure: as §1

[2] = tested on: Klebsiella pneumoniae EK-6; experiment: as above; type: cell-based; settings: EK6
Procedure: as §1

[3] = tested on: Serratia marcescens ES-75; experiment: as above; type: cell-based; settings: ES75
Procedure: as §1

[4] = tested on: Pseudomonas aeruginosa EP-174; experiment: as above; type: cell-based; settings: EP174
Procedure: as §1

[5] = tested on: Staphylococcus aureus 209-P; experiment: as above; type: cell-based
Procedure: as §1

NC(=O)OCC1=C(C(=O)O)N2C(=O)[C@@H](NC(=O)[C@H](NC(=O)c3coc4cc(O)c(O)cc4c3=O)c3ccc(O)cc3)[C@H]2SC1 [Example 2, 7β-[D-2-(6,7-Dihydroxychromon-3-carboxamido)-2-(4-hydroxyphenyl)acetamido]-3-carbamoyloxymethyl-3-cephem-4-carboxylic acid]
LD50 [1]: > 4000 mg/kg | MIC (Escherichia coli NIHJ): 0.8 µg/mL (≈ 1.28 µM) | MIC (Proteus vulgaris E-18): > 100 µg/mL | MIC (Proteus morganii EP-14): 25 µg/mL (≈ 39.9 µM) | MIC [2]: ≤ 0.05 µg/mL | MIC [3]: 0.8 µg/mL (≈ 1.28 µM) | MIC [4]: 0.4 µg/mL (≈ 0.638 µM) | MIC [5]: 3.13 µg/mL (≈ 5 µM)

CO[C@@]1(NC(=O)[C@H](NC(=O)c2coc3cc(O)c(O)cc3c2=O)c2ccc(O)cc2)C(=O)N2C(C(=O)O)=C(COC(=O)NC(=O)C(Cl)(Cl)Cl)CS[C@@H]21 [Example 3, 7β-[D-2-(6,7-Dihydroxychromon-3-carboxamido)-2-(4-hydroxyphenyl)acetamido]-7α-methoxy-3-trichloroacetylcarbamoyloxymethyl-3-cephem-4-carboxylic acid]
LD50 [1]: > 4000 mg/kg | MIC (Escherichia coli NIHJ): 3.13 µg/mL (≈ 3.9 µM) | MIC (Proteus vulgaris E-18): 3.13 µg/mL (≈ 3.9 µM) | MIC (Proteus morganii EP-14): 12.5 µg/mL (≈ 15.6 µM) | MIC [2]: ≤ 0.05 µg/mL | MIC [3]: 1.56 µg/mL (≈ 1.95 µM) | MIC [4]: 3.13 µg/mL (≈ 3.9 µM) | MIC [5]: 6.25 µg/mL (≈ 7.79 µM)

CO[C@@]1(NC(=O)[C@H](NC(=O)c2coc3cc(O)c(O)cc3c2=O)c2ccc(O)cc2)C(=O)N2C(C(=O)O)=C(COC(N)=O)CS[C@@H]21 [Example 4, 7β-[D-2-(6,7-Dihydroxychromon-3-carboxamido)-2-(4-hydroxyphenyl)acetamido]-7α-methoxy-3-carbamoyloxymethyl-3-cephem-4-carboxylic acid]
LD50 [1]: > 4000 mg/kg | MIC (Escherichia coli NIHJ): 1.56 µg/mL (≈ 2.38 µM) | MIC (Proteus vulgaris E-18): 0.8 µg/mL (≈ 1.22 µM) | MIC (Proteus morganii EP-14): 6.25 µg/mL (≈ 9.52 µM) | MIC [2]: ≤ 0.05 µg/mL | MIC [3]: 0.4 µg/mL (≈ 0.609 µM) | MIC [4]: 1.56 µg/mL (≈ 2.38 µM) | MIC [5]: 6.25 µg/mL (≈ 9.52 µM)
